Measurements: patent publication US20230270721A1, “INHIBITION OF BAX-MEDIATED CELL DEATH BY ELTROMBOPAG” (Albert Einstein College of Medicine, priority 2020, published 2023)

How the values were obtained:
[1] = tested on: platelets of C57BL/6J mice; assay: In vivo mouse platelet experiments; conditions: ABT-263 25 mg/kg single dose, oral gavage, within 24 hr
Protocol: Wild type black mice strain C57BL/6J were treated with vehicle, ABT-263 (25 mg/kg, single dose), EO (100 mg/kg, then 3 hrs later 50 mg/kg), or a combination of ABT-263 and EO. EO was formulated in dH2O, and ABT-263 was formulated in 10% ethanol, 30% polyethylene glycol 400, and 60% Phosal 50 PG. Both ABT-263 and EO were administered by oral gavage. Blood samples were collected by submandibular bleed before treatment and 24 hours following treatment, and CBC was acquired. Percentage platelet protection was calculated as follows: % Platelet Protection = (100)(Px - mPABT)/(mPv - mPABT) where Px is the platelet count for a given mouse, mPv is the mean vehicle treated platelet count, and mPABT is the mean ABT-263 treated platelet count. Statistical analysis was performed using one-way ANOVA with select multiple comparisons as shown.
Finally, whether EO can rescue thrombocytopenia induced by the activity of navitoclax was evaluated in mice. The use of navitoclax is limited by on-target toxicity triggering BAK/BAX-mediated platelet apoptosis (Zhang, H. et al. Cell Death Differ 14, 943-951 (2007)). […] This EO effect is distinct from its capacity to stimulate platelet production by differentiation of the megakaryocyte precursors and progenitor cells, which requires 5 days to begin (Erickson-Miller, C. L. et al. Stem Cells 27, 424-430 (2009); Jenkins, J. M. et al. Blood 109, 4739-4741 (2007)).

BAX [2] = target: T1, BAX (Homo sapiens, UniProt Q07812); assay: Competitive fluorescence polarization binding assay (FPA), BAX / FITC-BIM-SAHB; conditions: BAX 150 nM, FITC-BIM-SAHB 25 nM; read-out: IC50, competition of FITC-BIM-SAHB by FPA
T1 construct: Human full-length (1-192) wild-type BAX (Q07812); made in house; host or cells: E. coli BL21 (DE3) CodonPlus (DE3)-RIPL
T1 sequence (Q07812 whole entry): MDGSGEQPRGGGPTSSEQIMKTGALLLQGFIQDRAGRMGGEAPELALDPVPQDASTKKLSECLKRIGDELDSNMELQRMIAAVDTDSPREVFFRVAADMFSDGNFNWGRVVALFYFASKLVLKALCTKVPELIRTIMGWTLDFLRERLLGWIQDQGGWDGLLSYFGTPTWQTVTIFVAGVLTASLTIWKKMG
Protocol: Fluorescence polarization assays (FPA) were performed as previously described (Gavathiotis, E., et al. Nat Chem Biol 8, 639-645 (2012)). Direct binding isotherms of BIM-SAHB were measured by incubated FITC-BIM-SAHB (25 nM) with serial dilutions of full-length BAX alone or in the presence of 0.5 or 1 µM EO. Competition binding assays were performed by titrating ED into BAX (150 nM) and FITC-BIM-SAHB (25 nM). Measurements were taken at 10-minute intervals over 60 minutes on a TECAN F200 PRO microplate reader. Reported curves represent 10-minute time point. KD values and IC50 were determined using GraphPad Prism nonlinear fit four-parameter agonist or antagonist versus response with restraints for 100% and 0% bound calculated by the mP of saturated BAX + FITC-BIM-SAHB and FITC-BIM-SAHB alone.
To test this hypothesis, a competitive fluorescence polarization assay (FPA) (Gavathiotis, E., et al. Nat Chem Biol 8, 639-645 (2012)) based on the interaction between BAX and fluorescently-labeled stapled BIM-BH3 peptide (FITC-BIM-SAHB) was used (Gavathiotis, E., et al. Nature 455, 1076-1081 (2008)). […] The IC50 and KD are consistent with a competitive binding mechanism of EO displacing FITC-BIM-SAHB from the N-terminal trigger site of BAX.

BAX [3] = target: T1, BAX; assay: Liposomal permeabilization (ANTS/DPX release) assay; type: biochemical; conditions: 50 nM BAX and 5 nM tBID; compared with EO
Protocol: Lipids (Avanti Polar Lipids) at the following ratio, phosphatidylcholine 48%, phosphatidylinositol 10%, dioleoyl phosphatidylserine 10%, phosphatidylethanolamine, 28%, and tetraoleoyl cardiolipin 4%, were mixed in a total of 1 mg, dried and resuspended in 10 mM HEPES, pH 7, 200 mM KCI, and 5 mM MgCl2 with 12.5 mM 8-aminonaphthalene-1,3,6-trisulfonic acid (ANTS) dye and 45 mM p-xylene-bis-pyridinium bromide (DPX) quencher (Molecular Probes) using a water bath sonicator. Liposomes were formed by extrusion of the suspension using Avanti Mini-Extruder (Cat # 610000) with polycarbonate membranes of 0.1 µm pore size (Avanti Polar Lipids). ANTS/DPX encapsulated liposomes were purified from non-encapsulated ANTS/DPX by gel filtration of a 10 mL CL2B-Sepharose (GE Healthcare Life Sciences) gravity-flow column. BAX (50-250 nM) was combined with tBID, BIM, and EO at the indicated concentrations to a volume of 90 µL. Reactions were initiated by the addition of […] of the encapsulated ANTS/DPX liposome stock. ANTS/DPX release was quantified based on the increase in fluorescence intensity that occurs when the ANTS fluorophore is separated from the DPX quencher upon release from the liposomes into solution. Fluorescence (λex = 355 nm and λem = 520 nm) was measured at 1 minute intervals at room temperature (22-25° C.) indicated using a Tecan Infinite M1000 plate reader. In the case of heat activation, reactions were set up as described in the absence of tBID or BIM, and experiments were recorded at 42° C. The percentage release of ANTS/DPX at any given time point was calculated as percentage release=((F-F0)/(F100-F0))(100), where F0 and F100 are baseline and maximal fluorescence, respectively. Triton X-100 (1%) was used to determine the maximum amount of liposomal release per assay and was set to 100%.
Next, EO’s capacity to modulate BAX activity was evaluated using liposomal release assays. […] Instead, EO was able to inhibit both tBID- and BIM BH3-mediated BAX activation (FIGS. 1E, 1F, and 1G). Inhibition of tBID-mediated BAX activation by EO was inversely proportional to the concentration of the tBID activator, consistent with competitive inhibition of BH3-activator binding.

With CC1(C)CCC(c2ccc(Cl)cc2)=C(CN2CCN(c3ccc(C(=O)NS(=O)(=O)c4ccc(N[C@H](CCN5CCOCC5)CSc5ccccc5)c(S(=O)(=O)C(F)(F)F)c4)cc3)CC2)C1 [navitoclax] the platelet loss [1] was “significant platelet loss”.

For COC(=O)c1cccc(-c2cccc(NN=C3C(=O)N(c4ccc(C)c(C)c4)N=C3C)c2O)c1 [EO-Methyl Ester, eltrombopag methyl ester], the IC50 (BAX [2]) was over 5 µM and the “inhibition of BAX in liposomal release assays” value (BAX [3]) was “significantly diminished inhibition”.
